Measurements published in the CombiSolv-Exp solvation set (Vermeire and Green 2021).

Test: solvent given as SMILES

O=C(O)c1ccc(O)cc1
Conditions | solvation free energy, 298 K [kcal/mol]
in C1CCOC1 | -11.4
in C1COCCO1 | -11.2
in CC(=O)N(C)C | -11.8
in CC(C)(C)O | -11.2
in CC(C)=O | -11.5
in CC(C)CO | -11.3
in CC(C)O | -11.5
in CCC(C)O | -11.2
in CCCCCCCCO | -11
in CCCCCCO | -11.2
in CCCCCO | -11.3
in CCCCO | -11.4
in CCCCOC(C)=O | -10.8
in CCCCOCCCC | -10.2
in CCCO | -11.5
in CCO | -11.7
in CCOC(C)=O | -11
in CCOCC | -10.8
in CN(C)C=O | -11.8
in CNC=O | -11.7
in O | -9.25

CS
Conditions | solvation free energy, 298 K [kcal/mol]
in O | -1.18

Cc1cc2ccccc2cc1C
Conditions | solvation free energy, 298 K [kcal/mol]
in CCCCCCCCC=CCCCCCCCC(=O)OCC(COC(=O)CCCCCCCC=CCCCCCCCC)OC(=O)CCCCCCCC=CCCCCCCCC | -8.95
in O | -2.72

CC(C)c1ccc2c(c1)CCC1C(C)(C)CCCC21C (centres undefined)
Conditions | solvation free energy, 298 K [kcal/mol]
in O | -0.37

c1ccc2c(c1)CCC2
Conditions | solvation free energy, 298 K [kcal/mol]
in O | -1.42

Cc1cncc(C)c1
Conditions | solvation free energy, 298 K [kcal/mol]
in O | -4.84

C=CCC=CC
Conditions | solvation free energy, 298 K [kcal/mol]
in C=CCCCCCCCCCCCCCC | -3.46
in O | 1.09

Clc1ccc(-c2cc(Cl)c(Cl)c(Cl)c2)cc1Cl
Conditions | solvation free energy, 298 K [kcal/mol]
in O | -3.79

Cc1c(C(=O)O)cc([N+](=O)[O-])cc1[N+](=O)[O-]
Conditions | solvation free energy, 298 K [kcal/mol]
in C1CCOC1 | -17.5
in C1COCCO1 | -17.5
in CC(C)(C)O | -16
in CC(C)CCO | -15.8
in CC(C)CO | -15.7
in CC(C)O | -16.2
in CCC(C)O | -16.1
in CCCC(C)O | -15.9
in CCCCCCCCCCO | -15.3
in CCCCCCCCO | -15.6
in CCCCCCCO | -15.9
in CCCCCCO | -15.8
in CCCCCO | -16
in CCCCO | -16.1
in CCCCOC(C)=O | -16.2
in CCCO | -16.2
in CCOC(C)=O | -16.4
in COC(C)=O | -16.7
in O | -13.6

CN1CCCCC1
Conditions | solvation free energy, 298 K [kcal/mol]
in COC(C)(C)C | -4.8
in O | -3.88

CCCCCC(=O)OC
Conditions | solvation free energy, 298 K [kcal/mol]
in CCCCCC | -5.65
in CCCCCCC | -5.63
in CCCCCCCC | -5.55
in CCCCCCCCCC | -5.48
in CO | -5.84
in O | -2.5

Cc1cccc(C(=O)O)c1
Conditions | solvation free energy, 298 K [kcal/mol]
in C1CCOC1 | -10.5
in C1COCCO1 | -10.1
in CC(C)(C)O | -10.2
in CC(C)CC(C)O | -10
in CC(C)CCO | -9.93
in CC(C)CO | -9.91
in CC(C)O | -10.1
in CC(C)OCCO | -10.1
in CC(O)COC(C)(C)C | -9.97
in CCC(C)CO | -9.88
in CCC(C)O | -10.1
in CCCC(C)CO | -9.89
in CCCC(C)O | -10
in CCCCCCCCCCO | -9.65
in CCCCCCCCO | -9.87
in CCCCCCCO | -9.91
in CCCCCCO | -9.94
in CCCCCO | -9.99
in CCCCO | -10
in CCCCOC(C)=O | -9.69
in CCCCOCCO | -10
in CCCO | -10.3
in CCCOCCO | -10.1
in CCO | -10.2
in CCOC(C)=O | -9.9
in CCOCC | -10
in CCOCCO | -10.1
in CO | -10.3
in COC(C)=O | -9.99
in COC(C)CCO | -10.1
in O | -6.79

C=C1CC=C(C(C)C)CC1
Conditions | solvation free energy, 298 K [kcal/mol]
in O | 0.05

O=C(c1cc([N+](=O)[O-])cc([N+](=O)[O-])c1)N(O)c1ccccc1
Conditions | solvation free energy, 298 K [kcal/mol]
in O | -15.6

C=C1CCC2C1C1C(C(C)C)CCC21C (centres undefined)
Conditions | solvation free energy, 298 K [kcal/mol]
in O | 1.19

CCCCCc1ccccc1
Conditions | solvation free energy, 298 K [kcal/mol]
in O | -0.23

CCCC[N+](=O)[O-]
Conditions | solvation free energy, 298 K [kcal/mol]
in CCCCCC | -4.64
in O | -3.1

CC1CCC2=C1CC1CCC2(C)C1(C)C (centres undefined)
Conditions | solvation free energy, 298 K [kcal/mol]
in O | 0.78

[HH]
Conditions | solvation free energy, 298 K [kcal/mol]
in Brc1ccccc1 | 1.77
in C1CCNC1 | 1.62
in C1CCNCC1 | 1.63
in C1CCOC1 | 1.46
in C1COCCO1 | 1.76
in C=CCCCCCC | 1.36
in C=CCCCCCCC=C | 1.6
in CC1COC(=O)O1 | 2.04
in CC#N | 1.45
in CC(=O)OCC(C)C | 1.49
in CC(C)(C)O | 1.49
in CC(C)=O | 1.38
in CC(C)CC(C)(C)C | 1.28
in CC(C)CCO | 1.76
in CC(C)CO | 1.53
in CC(C)N | 1.3
in CC(C)O | 1.45
in CCC(C)=O | 1.45
in CCC(C)O | 1.56
in CCCCC(CC)CO | 1.64
in CCCCCC | 1.24
in CCCCCCC | 1.29
in CCCCCCCC | 1.35
in CCCCCCCCCC | 1.49
in CCCCCCCCCCCCO | 1.9
in CCCCCCCCCCO | 1.83
in CCCCCCCCCO | 1.8
in CCCCCCO | 1.61
in CCCCCO | 1.64
in CCCCCOC(C)=O | 1.91
in CCCCN(CCCC)CCCC | 1.53
in CCCCNCCCC | 1.48
in CCCCO | 1.56
in CCCCOC(C)=O | 1.5
in CCCCOCCCC | 1.42
in CCCCOCCO | 1.67
in CCCN | 1.35
in CCCO | 1.52
in CCN | 1.24
in CCN(CC)CC | 1.33
in CCO | 1.47
in CCOC(C)=O | 1.46
in CCOCC | 1.15
in CCOCCO | 1.7
in CN1CCCC1 | 1.38
in CN1CCCC1=O | 1.98
in CN(C)C=O | 1.84
in CN(C)CCCN | 1.63
in CO | 1.35
in COC(C)=O | 1.42
in COCCO | 1.84
in Cc1cccc(C)c1 | 1.49
in Cc1ccccc1 | 1.62
in ClC(Cl)(Cl)Cl | 1.51
in ClC(Cl)Cl | 1.61
in ClCCCl | 1.72
in ClCCl | 1.57
in Clc1ccccc1 | 1.65
in NCCCN | 2.05
in NCCN | 2.15
in O=C1CCCC1 | 1.72
in O=C1CCCCC1 | 1.75
in OCCO | 2.38
in c1ccccc1 | 1.58

CSSC
Conditions | solvation free energy, 298 K [kcal/mol]
in O | -1.74

C=CCCl
Conditions | solvation free energy, 298 K [kcal/mol]
in O | -0.57

CC1CCCCC1O (centres undefined)
Conditions | solvation free energy, 298 K [kcal/mol]
in O | -4.79

c1ccc2ncccc2c1
Conditions | solvation free energy, 298 K [kcal/mol]
in CC(C)CC(C)(C)C | -7.14
in O | -5.72

CCCCCCCCO
Conditions | solvation free energy, 298 K [kcal/mol]
in CC(C)CC(C)(C)C | -6.52
in CCC(C)=O | -8.2
in CCCCCCC | -6.38
in CCCCCCCCCCCCCCCC | -6.17
in CCCCCCCCCO | -8.45
in CCCCCCO | -8.58
in CCCCCl | -7.22
in CO | -8.03
in NC=O | -6.49
in O | -4.07
